According to US20220041606A1, “POSITIVE ALLOSTERIC MODULATORS OF THE MUSCARINIC ACETYLCHOLINE RECEPTOR M1” (Vanderbilt University, priority 2020, published 2022):

Assays:
human mAChR M1 [1] = target: T1, human mAChR M1 (Homo sapiens, UniProt P11229); experiment: mAChR M1 cell-based functional assay (calcium mobilization), PAM activity: increase in the EC20 acetylcholine response; conditions: CHO-K1 cells expressing hM1; potentiation of EC20 acetylcholine response
T1 construct: host or cells: CHO-K1 cells (ATCC), stably transfected using Lipofectamine2000
T1 sequence (P11229 1-460): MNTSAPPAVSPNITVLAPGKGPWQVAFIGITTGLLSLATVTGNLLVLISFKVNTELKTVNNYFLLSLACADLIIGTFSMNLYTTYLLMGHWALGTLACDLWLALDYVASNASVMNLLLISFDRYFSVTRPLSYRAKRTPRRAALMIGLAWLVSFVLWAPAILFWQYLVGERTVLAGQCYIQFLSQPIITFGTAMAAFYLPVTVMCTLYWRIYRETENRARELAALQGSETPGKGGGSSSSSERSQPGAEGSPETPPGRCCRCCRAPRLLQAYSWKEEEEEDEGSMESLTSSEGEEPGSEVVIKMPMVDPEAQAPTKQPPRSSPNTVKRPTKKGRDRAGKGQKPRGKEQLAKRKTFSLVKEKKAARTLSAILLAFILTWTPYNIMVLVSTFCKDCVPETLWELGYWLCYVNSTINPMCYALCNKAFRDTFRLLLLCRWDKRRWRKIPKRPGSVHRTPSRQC
Outline: (§1)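 Fluorescence ratio calcium read-out (Fluo-4 AM, FDSS 6000) in human M1-expressing CHO-K1 cells. Agonist activity taken as concentration-dependent rise after compound addition; potentiation as enhancement of a subsequent EC20 acetylcholine challenge. Curves from 11-point threefold dilutions fitted by four-parameter logistic; Emax expressed versus acetylcholine maximum.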

human mAChR M1 [2] = target: T1, human mAChR M1; experiment: mAChR M1 cell-based functional assay (calcium mobilization), agonist activity upon compound addition; conditions: CHO-K1 cells expressing hM1; for EC50: compound alone, before acetylcholine addition; for Emax: relative to the maximum for acetylcholine
Outline: as §1

Row | SMILES | EC50 (human mAChR M1 [1]) [µM] | Emax (human mAChR M1 [1]) [%] | EC50 (human mAChR M1 [2]) [µM] | Emax (human mAChR M1 [2]) [%]
1 | Cn1cc2c(-c3cc(F)c(Cn4cc(C(=O)N[C@H]5CC[C@@H]5O)c5nccn5c4=O)c(F)c3)cccc2n1 [Compound B22, 6-(2,6-difluoro-4-(2-methyl-2H-indazol-4-yl)benzyl)-N-((1S,2S)-2-hydroxycyclobutyl)-5-oxo-5,6-dihydroimidazo[1,2-c]pyrimidine-8-carboxamide] | 1.27 | 59 | > 10 | 19
2 | Cc1cn2c(=O)n(Cc3ccc(-c4cnn(C)c4)cc3F)cc(C(=O)N[C@H]3CCOC[C@@H]3O)c2n1 [Compound B23, 6-(2-Fluoro-4-(1-methyl-1H-pyrazol-4-yl)benzyl)-N-((3R,4S)-3-hydroxytetrahydro-2H-pyran-4-yl)-2-methyl-5-oxo-5,6-dihydroimidazo[1,2-c]pyrimidine-8-carboxamide] | 7.85 | 39 | > 10 | < 5
3 | Cc1cn2c(=O)n(Cc3ccc(-c4cnn(C)c4)cc3F)cc(C(=O)N[C@H]3CCCC[C@@H]3O)c2n1 [Compound B24, 6-(2-fluoro-4-(1-methyl-1H-pyrazol-4-yl)benzyl)-N-((1S,2S)-2-hydroxycyclohexyl)-2-methyl-5-oxo-5,6-dihydroimidazo[1,2-c]pyrimidine-8-carboxamide] | ≥ 10 | 41 | > 10 | < 5
4 | Cc1cn2c(=O)n(Cc3ccc(-c4ccn(C)n4)cc3F)cc(C(=O)N[C@H]3CCOC[C@@H]3O)c2n1 [Compound B25, 6-(2-fluoro-4-(1-methyl-1H-pyrazol-3-yl)benzyl)-N-((3R,4S)-3-hydroxytetrahydro-2H-pyran-4-yl)-2-methyl-5-oxo-5,6-dihydroimidazo[1,2-c]pyrimidine-8-carboxamide] | 9.29 | 33 | > 10 | < 5
5 | Cc1cn2c(=O)n(Cc3ccc(-c4ccn(C)n4)cc3F)cc(C(=O)N[C@H]3CCCC[C@@H]3O)c2n1 [Compound B26, 6-(2-fluoro-4-(1-methyl-1H-pyrazol-3-yl)benzyl)-N-((1S,2S)-2-hydroxycyclohexyl)-2-methyl-5-oxo-5,6-dihydroimidazo[1,2-c]pyrimidine-8-carboxamide] | 5.53 | 28 | > 10 | < 5
6 | Cc1cn2c(=O)n(Cc3ccc(-n4cccn4)cc3)cc(C(=O)N[C@H]3CCOC[C@@H]3O)c2n1 [Compound B27, 6-(4-(1H-pyrazol-1-yl)benzyl)-N-((3R,4S)-3-hydroxytetrahydro-2H-pyran-4-yl)-2-methyl-5-oxo-5,6-dihydroimidazo[1,2-c]pyrimidine-8-carboxamide] | ≥ 10 | 30 | > 10 | < 5
7 | Cc1cn2c(=O)n(Cc3ccc(-n4cccn4)cc3)cc(C(=O)N[C@H]3CCCC[C@@H]3O)c2n1 [Compound B28, 6-(4-(1H-pyrazol-1-yl)benzyl)-N-((1S,2S)-2-hydroxycyclohexyl)-2-methyl-5-oxo-5,6-dihydroimidazo[1,2-c]pyrimidine-8-carboxamide] | ≥ 10 | 30 | > 10 | < 5
8 | Cc1cn2c(=O)n(Cc3c(F)cc(-c4cccc5nn(C)cc45)cc3F)cc(C(=O)N[C@H]3CCOC[C@@H]3O)c2n1 [Compound B29, 6-(2,6-difluoro-4-(2-methyl-2H-indazol-4-yl)benzyl)-N-((3R,4S)-3-hydroxytetrahydro-2H-pyran-4-yl)-2-methyl-5-oxo-5,6-dihydroimidazo[1,2-c]pyrimidine-8-carboxamide] | 4.31 | 40 | > 10 | < 5
9 | Cc1cn2c(=O)n(Cc3c(F)cc(-c4cccc5nn(C)cc45)cc3F)cc(C(=O)N[C@H]3CCCC[C@@H]3O)c2n1 [Compound B30, 6-(2,6-difluoro-4-(2-methyl-2H-indazol-4-yl)benzyl)-N-((1S,2S)-2-hydroxycyclohexyl)-2-methyl-5-oxo-5,6-dihydroimidazo[1,2-c]pyrimidine-8-carboxamide] | 5.89 | 27 | > 10 | < 5
10 | Cn1nccc1-c1ccc(Cn2cc(C(=O)N[C@H]3CCC[C@@H]3O)c3nccn3c2=O)c(F)c1 [Compound B33, 6-(2-fluoro-4-(1-methyl-1H-pyrazol-5-yl)benzyl)-N-((1S,2S)-2-hydroxycyclopentyl)-5-oxo-5,6-dihydroimidazo[1,2-c]pyrimidine-8-carboxamide] | 2.23 | 57 | > 10 | < 5
11 | Cc1cnn(C)c1-c1ccc(Cn2cc(C(=O)N[C@H]3CCOC[C@@H]3O)c3nccn3c2=O)c(F)c1 [Compound B34, 6-(4-(1,4-dimethyl-1H-pyrazol-5-yl)-2-fluorobenzyl)-N-((3R,4S)-3-hydroxytetrahydro-2H-pyran-4-yl)-5-oxo-5,6-dihydroimidazo[1,2-c]pyrimidine-8-carboxamide] | ≥ 10 | 44 | > 10 | < 5
12 | Cc1cnn(C)c1-c1ccc(Cn2cc(C(=O)N[C@H]3CCCC[C@@H]3O)c3nccn3c2=O)c(F)c1 [Compound B35, 6-(4-(1,4-dimethyl-1H-pyrazol-5-yl)-2-fluorobenzyl)-N-((1S,2S)-2-hydroxycyclohexyl)-5-oxo-5,6-dihydroimidazo[1,2-c]pyrimidine-8-carboxamide] | 7.02 | 44 | > 10 | < 5
13 | Cn1nccc1-c1cc(F)c(Cn2cc(C(=O)N[C@H]3CCOC[C@@H]3O)c3nccn3c2=O)c(F)c1 [Compound B36, 6-(2,6-difluoro-4-(1-methyl-1H-pyrazol-5-yl)benzyl)-N-((3R,4S)-3-hydroxytetrahydro-2H-pyran-4-yl)-5-oxo-5,6-dihydroimidazo[1,2-c]pyrimidine-8-carboxamide] | 1.25 | 78 | > 10 | < 5

Compounds with a lower EC50 (human mAChR M1 [1]), results first:

Row | EC50 (human mAChR M1 [1]) [µM] | Emax (human mAChR M1 [1]) [%] | EC50 (human mAChR M1 [2]) [µM] | Emax (human mAChR M1 [2]) [%] | SMILES
14 | 1.13 | 82 | > 10 | 6 | Cn1nccc1-c1ccc(Cn2cc(C(=O)N[C@H]3CCOC[C@@H]3O)c3nccn3c2=O)c(F)c1 [Compound B31, 6-(2-fluoro-4-(1-methyl-1H-pyrazol-5-yl)benzyl)-N-((3R,4S)-3-hydroxytetrahydro-2H-pyran-4-yl)-5-oxo-5,6-dihydroimidazo[1,2-c]pyrimidine-8-carboxamide]
15 | 0.9 | 59 | > 10 | < 5 | Cn1cc2c(-c3cc(F)c(Cn4cc(C(=O)N[C@H]5CCC[C@@H]5O)c5nccn5c4=O)c(F)c3)cccc2n1 [Compound B21, 6-(2,6-difluoro-4-(2-methyl-2H-indazol-4-yl)benzyl)-N-((1S,2S)-2-hydroxycyclopentyl)-5-oxo-5,6-dihydroimidazo[1,2-c]pyrimidine-8-carboxamide]
16 | 0.89 | 80 | > 10 | < 5 | Cn1nccc1-c1ccc(Cn2cc(C(=O)N[C@H]3CCCC[C@@H]3O)c3nccn3c2=O)c(F)c1 [Compound B32, 6-(2-fluoro-4-(1-methyl-1H-pyrazol-5-yl)benzyl)-N-((1S,2S)-2-hydroxycyclohexyl)-5-oxo-5,6-dihydroimidazo[1,2-c]pyrimidine-8-carboxamide]
17 | 0.47 | 42 | 5.24 | 51 | Cn1cc2c(-c3cc(F)c(Cn4cc(C(=O)N[C@H]5CCCCC[C@@H]5O)c5nccn5c4=O)c(F)c3)cccc2n1 [Compound B19, 6-(2,6-difluoro-4-(2-methyl-2H-indazol-4-yl)benzyl)-N-((1S,2S)-2-hydroxycycloheptyl)-5-oxo-5,6-dihydroimidazo[1,2-c]pyrimidine-8-carboxamide]
18 | 0.25 | 65 |  | 8 | Cn1ccc(-c2ccc(Cn3cc(C(=O)N[C@H]4CCCC[C@@H]4O)c4ncn(C)c4c3=O)c(F)c2)n1 [Compound C1, 5-(2-Fluoro-4-(1-methyl-1H-pyrazol-3-yl)benzyl)-N-((1S,2S)-2-hydroxycyclohexyl)-3-methyl-4-oxo-4,5-dihydro-3H-imidazo[4,5-c]pyridine-7-carboxamide]
19 | 0.24 | 51 | 2.79 | 63 | Cn1cc2c(-c3cc(F)c(Cn4cc(C(=O)N[C@H]5CCCC[C@@H]5O)c5nccn5c4=O)c(F)c3)cccc2n1 [Compound B20, 6-(2,6-difluoro-4-(2-methyl-2H-indazol-4-yl)benzyl)-N-((1S,2S)-2-hydroxycyclohexyl)-5-oxo-5,6-dihydroimidazo[1,2-c]pyrimidine-8-carboxamide]
20 | 0.093 | 84 | 5.27 | 24 | Cn1cc2c(-c3cc(F)c(Cn4cc(C(=O)N[C@H]5CCOC[C@@H]5O)c5nccn5c4=O)c(F)c3)cccc2n1 [Compound B18, 6-(2,6-difluoro-4-(2-methyl-2H-indazol-4-yl)benzyl)-N-((3R,4S)-3-hydroxytetrahydro-2H-pyran-4-yl)-5-oxo-5,6-dihydroimidazo[1,2-c]pyrimidine-8-carboxamide]
